Residues, ends and D or L forms follow the SMILES beside them. *: point of attachment. Cbz = O=C(OCc1ccccc1)*
Tests used:
[1] = Oral insulin absorption in female ICR-CD-1 mice: percent decrease in blood glucose and degree of elevation of blood insulin; assay type: in vivo, mouse (Female ICR-CD-1 mice); conditions: vs control group
Method: The absorption promoter samples listed in Table 2 were dissolved or suspended in 0.5% CMC-0.05M tris-HCl buffers (pH: 7.8) and the solutions or suspensions were mixed with aqueous insulin solution. Female ICR-CD-1 mice 5 to 7 weeks old were orally administered predetermined amounts of the mixtures. A predetermined duration later, the percent decrease in blood glucose and the degree of elevation of blood insulin as compared with the control group were measured. The symbol "Z" in the structural formulas in the table represents a benzyloxycarbonyl group. The upper figures in the columns "effectiveness" represent the percent decrease in blood glucose and the lower parenthesized figures indicate the degree of elevation in blood insulin.

[2] = Usefulness as absorption promoter; conditions: statement in words, no data
[3] = Toxicity studies of phenylalanine derivatives, oral, in female CD-1(ICR) mice; conditions: mouse, in vivo, suspended in 0.5% CMC
Description: Toxicity Studies of Phenylalanine Derivatives with Oral IN Potentiating Activity in Female CD-1(ICR) Mice are as follows:
Phenylalanine derivatives were suspended in 0.5% CMC.

[4] = Degree of decrease in blood glucose after intraduodenal administration with insulin in rats; assay type: in vivo, rat (Male SD rats); conditions: male SD rats, 1.5 mg/10 body weight with insulin 1.25 U/10 g, mean
Method: Each (Administration: 1.5 mg/10 body weight) of the absorption promoters, phenylalanine derivatives as previously listed in the table was dissolved or suspended in 0.01M phosphate buffer (pH 7.5) and the solution or suspension was mixed with aqueous insulin (Administation: 1.25 U/10 g body weight) solution. Male SD rats, 6 weeks old, were intraduodenally administrated with predetermined amounts of the mixtures after being incised abdominally. The incised wounds were sutured quickly. A predetermined duration later, the percent decreases in blood glucose were determined. In the experiment, four rats a group were used, and the experiment was repeated 2 to 5 times. The mean values of the thus obtained data were described in the table.

[5] = sample 6.0 mg/10 g with insulin 2.5 U/10 g, 30 minutes
[6] = sample 6.0 mg/10 g with insulin 2.5 U/10 g, 60 minutes

Structure (SMILES)	LD50 [3]	Decrease in Blood Glucose ([4]; 30 minutes)	Decrease in Blood Glucose ([4]; 60 minutes)	other results
O=C(NC(Cc1ccc(F)cc1)C(=O)N[C@@H](Cc1ccccc1)C(=O)O)OCc1ccccc1 (mixture of isomers) [Sample S-22, N-benzyloxycarbonyl-4-fluoro-DL-phenylalanyl-L-phenylalanine]	–	–	–	Decrease in Blood Glucose ([1]; sample 3.0 mg/10 g with insulin 2.5 U/10 g, 30 minutes): 63.1%
O=C(COc1ccc([N+](=O)[O-])cc1)NC(Cc1ccc([N+](=O)[O-])cc1)C(=O)O (racemic) [Sample S-2, N-[(4-nitrophenoxy)acetyl]-4-nitro-DL-phenylalanine]	–	–	–	Decrease in Blood Glucose [1, 5]: 23.2%
CC(=O)N[C@@H](Cc1ccccc1)C(=O)O [N-acetylphenylalanine]	–	–	–	usefulness as absorption promoter [2]: not useful as absorption promoters
N[C@@H](Cc1ccccc1)C(=O)O [Phenylalanine]	–	–	–	usefulness as absorption promoter [2]: not useful as absorption promoters
O=C(C=Cc1ccccc1)N[C@@H](Cc1ccccc1)C(=O)O [Sample S-3, N-cinnamoyl-L-phenylalanine]	> 2500 mg/kg	–	–	–
O=C(COc1ccccc1)N[C@@H](Cc1ccccc1)C(=O)O [Sample S-5, N-phenoxyacetyl-L-phenylalanine]	> 4000 mg/kg	–	–	–
O=C(N[C@@H](Cc1ccccc1)C(=O)N[C@@H](Cc1ccccc1)C(=O)O)OCc1ccccc1 [Sample S-7, N-benzyloxycarbonyl-L-phenylalanyl-L-phenylalanine] (Cbz-Phe-Phe-OH)	> 3000 mg/kg	–	–	–
O=C(CCCc1ccccc1)N[C@@H](Cc1ccccc1)C(=O)O [Sample S-8, N-(4-phenylbutyroyl)-L-phenylalanine]	–	–	–	Decrease in Blood Glucose [1, 5]: 57.1%; Decrease in Blood Glucose [1, 6]: 35.6%
O=C(N[C@@H](Cc1ccccc1)C(=O)N[C@@H](Cc1ccc(O)cc1)C(=O)O)OCc1ccccc1 [Sample S-10, N-benzyloxycarbonyl-L-phenylalanyl-L-tyrosine] (Cbz-Phe-Tyr-OH)	> 3000 mg/kg	–	–	–
O=C(COc1cccc2ccccc12)N[C@@H](Cc1ccccc1)C(=O)O [Sample S-11, N-[(1-naphthoxy)acetyl]-L-phenylalanine]	> 4000 mg/kg	–	–	–
O=C(COc1ccc2ccccc2c1)N[C@@H](Cc1ccccc1)C(=O)O [Sample S-12, N-[(2-naphthoxy)acetyl]-L-phenylalanine]	> 4000 mg/kg	–	–	–
O=C(COc1ccc(Cl)cc1)N[C@@H](Cc1ccccc1)C(=O)O [Sample S-13, N-[(4-chlorophenoxy)acetyl]-L-phenylalanine]	> 3500 mg/kg	–	–	–
O=C(N[C@@H](Cc1ccccc1)C(=O)O)OCc1ccccc1 [Sample S-15, N-benzyloxycarbonyl-L-phenylalanine]	> 2750 mg/kg	–	–	–
O=C(N[C@@H](Cc1ccc(O)cc1)C(=O)O)OCc1ccccc1 [Sample S-16, N-benzyloxycarbonyl-L-tyrosne]	–	–	–	Decrease in Blood Glucose [1, 6]: 27.2%
COc1ccc(COC(=O)N[C@@H](Cc2ccccc2)C(=O)O)cc1 [Sample S-17, N-(4-methoxybenzyloxycarbonyl)-L-phenylalanine]	750 mg/kg	–	–	–
O=C(N[C@H](Cc1ccccc1)C(=O)O)OCc1ccccc1 [Sample S-18, N-benzyloxycarbonyl-D-phenylalanine]	> 4000 mg/kg	–	–	–
O=C(C=Cc1ccc2ccccc2c1)N[C@@H](Cc1ccccc1)C(=O)O [Sample S-37, N-(2-Naphthylacryloyl)-L-phenylalanine]	–	55.3%	40.2%	–
O=C(C=Cc1ccc2ccccc2c1)N[C@H](Cc1ccccc1)C(=O)O [Sample S-38, N-(2-Naphthylacryloyl)-D-phenylalanine]	–	27.0%	24.7%	–
CCc1ccc(C=CC(=O)N[C@@H](Cc2ccccc2)C(=O)O)cc1 [Sample S-39, N-(4-ethylcinnamoyl)-L-phenylalanine]	–	56.0%	32.5%	–
CCc1ccc(C=CC(=O)N[C@H](Cc2ccccc2)C(=O)O)cc1 [Sample S-40, N-(4-ethylcinnamoyl)-D-phenylalanine]	–	33.9%	28.1%	–
Cc1cccc(C=CC(=O)N[C@@H](Cc2ccccc2)C(=O)O)c1 [Sample S-41, N-(3-methylcinnamoyl)-L-phenylalanine]	–	50.5%	35.3%	–
Cc1cccc(C=CC(=O)N[C@H](Cc2ccccc2)C(=O)O)c1 [Sample S-42, N-(3-methylcinnamoyl)-D-phenylalanine]	–	48.8%	40.7%	–
O=C(C=Cc1cccc(Cl)c1)N[C@@H](Cc1ccccc1)C(=O)O [Sample S-43, N-(3-chlorocinnamoyl)-L-phenylalanine]	–	50.9%	46.9%	–
O=C(C=Cc1cccc(Cl)c1)N[C@H](Cc1ccccc1)C(=O)O [Sample S-44, N-(3-chlorocinnamoyl)-D-phenylalanine]	–	55.0%	49.3%	–
O=C(C=Cc1cccc2ccccc12)N[C@@H](Cc1ccccc1)C(=O)O [Sample S-45, N-(1-naphthylacryloyl)-L-phenylalanine]	–	41.2%	35.4%	–
O=C(C=Cc1cccc2ccccc12)N[C@H](Cc1ccccc1)C(=O)O [Sample S-46, N-(1-naphthylacryloyl)-D-phenylalanine]	–	41.6%	28.8%	–
Cc1ccc(C=CC(=O)N[C@H](Cc2ccccc2)C(=O)O)cc1 [Sample S-47, N-(4-methylcinnamoyl)-D-phenylalanine]	–	52.3%	41.0%	–
O=C(N[C@H](Cc1ccccc1)C(=O)O)C(F)=Cc1ccccc1 [Sample S-48, N-(α-fluorocinnamoyl)-D-phenylalanine]	–	73.7%	72.9%	–
O=C(N[C@@H](Cc1ccccc1)C(=O)O)C(Cl)=Cc1ccccc1 [Sample S-49, N-(α-Chlorocinnamoyl)-L-phenylalanine 1/2C2 H5 OH]	–	63.2%	49.1%	–
O=C(N[C@H](Cc1ccccc1)C(=O)O)C(Cl)=Cc1ccccc1 [Sample S-50, N-(α-Chlorocinnamoyl)-D-phenylalanine 1/2C2 H5 OH]	–	79.0%	74.9%	–

From US4670584A, “Pharmaceutical composition having an excellent absorption property” (Ajinomoto Company Incorporated, priority 1986, dated 1987)
